Measured values: the NIST ThermoML archive (doi:10.1016/j.fluid.2016.01.001)
± gives the expanded uncertainty stated by the source.

Settings: Capillary rise

## COC [dimethyl ether]
214 K
  surface tension liquid-gas: 24.45 ± 0.07 mN/m
220 K
  surface tension liquid-gas: 23.51 ± 0.07 mN/m
225 K
  surface tension liquid-gas: 22.69 ± 0.07 mN/m
230 K
  surface tension liquid-gas: 21.87 ± 0.07 mN/m
235 K
  surface tension liquid-gas: 21.15 ± 0.07 mN/m
240 K
  surface tension liquid-gas: 20.43 ± 0.07 mN/m
245 K
  surface tension liquid-gas: 19.7 ± 0.07 mN/m
250 K
  surface tension liquid-gas: 18.92 ± 0.06 mN/m
255 K
  surface tension liquid-gas: 18.15 ± 0.06 mN/m
260 K
  surface tension liquid-gas: 17.39 ± 0.06 mN/m
265 K
  surface tension liquid-gas: 16.62 ± 0.06 mN/m
270 K
  surface tension liquid-gas: 15.93 ± 0.06 mN/m
275 K
  surface tension liquid-gas: 15.19 ± 0.06 mN/m
280 K
  surface tension liquid-gas: 14.47 ± 0.06 mN/m
285 K
  surface tension liquid-gas: 13.73 ± 0.06 mN/m
290 K
  surface tension liquid-gas: 13.02 ± 0.06 mN/m
295 K
  surface tension liquid-gas: 12.28 ± 0.06 mN/m
300 K
  surface tension liquid-gas: 11.57 ± 0.06 mN/m
305 K
  surface tension liquid-gas: 10.85 ± 0.06 mN/m
315 K
  surface tension liquid-gas: 9.497 ± 0.055 mN/m
320 K
  surface tension liquid-gas: 8.813 ± 0.055 mN/m
325 K
  surface tension liquid-gas: 8.137 ± 0.054 mN/m
330 K
  surface tension liquid-gas: 7.476 ± 0.053 mN/m
335 K
  surface tension liquid-gas: 6.814 ± 0.053 mN/m
340 K
  surface tension liquid-gas: 6.164 ± 0.052 mN/m
345 K
  surface tension liquid-gas: 5.528 ± 0.052 mN/m
350 K
  surface tension liquid-gas: 4.899 ± 0.051 mN/m
355 K
  surface tension liquid-gas: 4.307 ± 0.05 mN/m
360 K
  surface tension liquid-gas: 3.707 ± 0.05 mN/m
365 K
  surface tension liquid-gas: 3.142 ± 0.049 mN/m
370 K
  surface tension liquid-gas: 2.575 ± 0.049 mN/m
375 K
  surface tension liquid-gas: 2.042 ± 0.048 mN/m
380 K
  surface tension liquid-gas: 1.516 ± 0.048 mN/m
385 K
  surface tension liquid-gas: 1.054 ± 0.048 mN/m
390 K
  surface tension liquid-gas: 0.614 ± 0.047 mN/m

## CCCC [butane]
278.15 K
  surface tension liquid-gas: 14.57 ± 0.06 mN/m
283.15 K
  surface tension liquid-gas: 13.96 ± 0.06 mN/m
288.15 K
  surface tension liquid-gas: 13.37 ± 0.06 mN/m
293.15 K
  surface tension liquid-gas: 12.79 ± 0.06 mN/m
298.15 K
  surface tension liquid-gas: 12.17 ± 0.06 mN/m
303.15 K
  surface tension liquid-gas: 11.53 ± 0.06 mN/m
308.15 K
  surface tension liquid-gas: 10.94 ± 0.06 mN/m
313.15 K
  surface tension liquid-gas: 10.35 ± 0.06 mN/m
318.15 K
  surface tension liquid-gas: 9.851 ± 0.058 mN/m
323.15 K
  surface tension liquid-gas: 9.286 ± 0.057 mN/m
328.15 K
  surface tension liquid-gas: 8.705 ± 0.057 mN/m
333.15 K
  surface tension liquid-gas: 8.14 ± 0.056 mN/m
338.15 K
  surface tension liquid-gas: 7.593 ± 0.056 mN/m
343.15 K
  surface tension liquid-gas: 7.043 ± 0.055 mN/m
348.15 K
  surface tension liquid-gas: 6.516 ± 0.055 mN/m
353.15 K
  surface tension liquid-gas: 5.991 ± 0.054 mN/m
358.15 K
  surface tension liquid-gas: 5.479 ± 0.054 mN/m
363.15 K
  surface tension liquid-gas: 4.981 ± 0.053 mN/m
368.15 K
  surface tension liquid-gas: 4.483 ± 0.053 mN/m
373.15 K
  surface tension liquid-gas: 4.003 ± 0.053 mN/m
378.15 K
  surface tension liquid-gas: 3.515 ± 0.052 mN/m
383.15 K
  surface tension liquid-gas: 3.049 ± 0.052 mN/m
388.15 K
  surface tension liquid-gas: 2.578 ± 0.051 mN/m
393.15 K
  surface tension liquid-gas: 2.091 ± 0.051 mN/m
398.15 K
  surface tension liquid-gas: 1.679 ± 0.051 mN/m
403.15 K
  surface tension liquid-gas: 1.29 ± 0.05 mN/m
408.15 K
  surface tension liquid-gas: 0.923 ± 0.05 mN/m
413.15 K
  surface tension liquid-gas: 0.583 ± 0.088 mN/m
417.15 K
  surface tension liquid-gas: 0.341 ± 0.088 mN/m
419.75 K
  surface tension liquid-gas: 0.186 ± 0.088 mN/m
420.35 K
  surface tension liquid-gas: 0.157 mN/m
420.85 K
  surface tension liquid-gas: 0.129 mN/m
421.08 K
  surface tension liquid-gas: 0.118 mN/m
421.48 K
  surface tension liquid-gas: 0.1 mN/m
